Structures can show the parent of a compound that is named as a salt.
Target: human PCSK9 (Homo sapiens, UniProt Q8NBP7)
Experiment: PCSK9 ligand binding assay (TR-FRET): interference with binding of human PCSK9 to human LDLR
Details: for IC50: Human PCSK9 Alexa Fluor 647 / Human LDLR extracellular domain-Europium Kryptate; for Max % inhibition: efficacy (Amax), 100% = 1 uM unlabeled human PCSK9, 0% = DMSO
Description: Example 10: PCSK9 Ligand Binding Assay
The PCSK9 binding of the compounds of the disclosure were measured using a time resolved fluorescence resonance energy transfer (TR-FRET) assay. This time resolved fluorescence resonance energy transfer (TR-FRET) assay measures the ability of a compound of the present disclosure to interfere with the binding of human PCSK9 to human LDLR, providing measures of both potency (IC50) and efficacy (Amax).
Human PCSK9 Alexa Fluor 647
Human LDLR extracellular domain-Europium Kryptate
Proxi plate-low volume assay plate (PerkinElmer #6008280)
Greiner V-bottom (Greiner BioOne #781280)
Assay Buffer • 20 mM HEPES, pH 7.5 • 150 mM NaCl • 1 mM CaCl2 • 0.01% v/v Tween20 • 0.01% w/v BSA
A master compound plate was prepared in a Greiner V bottom plate by diluting compounds of the disclosure in dimethylsulfoxide to the correct concentration for the desired top concentration based on the desired final concentration: for a 30 uM final concentration the master plate concentration is 1.5 mM (68 uL DMSO+12 uL 10 mM of a compound of the disclosure), for a 10 uM final concentration the master plate concentration is 0.5 mM (76 uL DMSO+4 uL 10 mM of a compound of the disclosure), for a 3 uM final concentration the master plate concentration is 150 uM (69 uL DMSO+1 uL 10 mM of a compound of the disclosure). These solutions were pipetted into columns 1 and 11 of the compound plate. Threefold serial dilutions were generated in columns 2-10 and 12-20 of the compound plate by transferring 10 uL into 20 uL of DMSO. Columns 21 and 22 of the compound plate were negative controls containing DMSO alone.
An intermediate plate was generated in a Greiner V bottom plate by transferring 8 uL from each well of the master plate into a corresponding well containing 92 uL of assay buffer and mixing thoroughly.
A Proxi plate-low volume assay plate was used for the assay. To all wells of the plate was added 10 uL of 16 nM Human PCSK9 Alexa Fluor 647, followed by 5 uL from the intermediate plate. For the positive control wells in columns 23 and 24 of the plate, 5 uL of unlabeled human PCSK9 was added at 4 uM in assay buffer containing 8% DMSO. Following a 30 minute incubation, 5 uL of 4 nM Human LDLR extracellular domain-Europium Kryptate was added and the mixture was incubated for an additional 2 hours.
The TR-FRET signal was measured on an EnVision or PheraStar instrument with a 60 ms delay, 330 nm excitation and 665 nm emission (FRET), and 330 nm excitation and 615 nm (Europium). The FRET ratio (FRET/Europium) was used for calculations.
No inhibition (0%) was observed from the wells containing DMSO (Control) in columns 21 and 22 of the compound plate. Full inhibition (100%) was observed from the wells containing 1 uM human PCSK9 (Control) in columns 23 and 24 of the plate. Data is expressed as percent inhibition: (value—0%)/(100%-0%).

Sequence of human PCSK9 (Q8NBP7 153-692): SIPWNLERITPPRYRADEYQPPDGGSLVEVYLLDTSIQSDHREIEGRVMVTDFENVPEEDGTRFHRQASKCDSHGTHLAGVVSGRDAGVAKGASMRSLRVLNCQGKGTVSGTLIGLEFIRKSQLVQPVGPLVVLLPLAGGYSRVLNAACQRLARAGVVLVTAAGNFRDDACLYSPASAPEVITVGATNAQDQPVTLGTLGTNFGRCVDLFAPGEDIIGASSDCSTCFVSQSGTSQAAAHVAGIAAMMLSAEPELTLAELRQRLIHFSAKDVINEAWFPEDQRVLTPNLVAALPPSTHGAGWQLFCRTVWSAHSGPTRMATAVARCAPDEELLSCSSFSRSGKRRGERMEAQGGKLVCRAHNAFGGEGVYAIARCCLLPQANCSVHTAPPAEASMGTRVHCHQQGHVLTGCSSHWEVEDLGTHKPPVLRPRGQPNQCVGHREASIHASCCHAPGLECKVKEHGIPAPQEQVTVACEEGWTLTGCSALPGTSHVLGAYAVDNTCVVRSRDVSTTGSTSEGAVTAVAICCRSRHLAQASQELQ
Sequence of human PCSK9 (Q8NBP7 31-152 partner limits assumed): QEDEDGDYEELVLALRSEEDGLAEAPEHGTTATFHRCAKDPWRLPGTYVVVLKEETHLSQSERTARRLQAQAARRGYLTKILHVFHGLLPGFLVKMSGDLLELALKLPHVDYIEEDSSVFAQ

Structure (SMILES)	IC50 [nM]	Max % inhibition [%]
C[C@H]1C(=O)N[C@@H](CO)C(=O)N[C@@]2(Cc3ccc(Cl)cc3)CCCN(C2)C(=O)[C@H](CC2CC2)CC(=O)N1Cc1ccc(Cl)cc1Oc1ccc(-c2cnc(CN(C)C)n2C)cc1 [Compound 42, (3R, 7S, 10S, 13R)-6-(4-chloro-2-(4-(2-((dimethylamino)methyl)-1-methyl-1H-imidazol-5-yl)phenoxy)benzyl)-13-(4-chlorobenzyl)-3-(cyclopropylmethyl)-10-(hydroxymethyl)-7-methyl-1,6,9,12-tetraazabicyclo[11.3.1]heptadecone-2,5,8,11-tetraone]	0.596	108.3
COC[C@@H]1NC(=O)[C@H](C)N(Cc2ccc(Cl)cc2Oc2ccc(-c3cnc(CN4CCCC4)n3C)cc2)C(=O)C[C@@H]([C@H]2CCc3ccccc32)C(=O)N(C)C[C@@H](Cc2ccc(Cl)cc2)N(C)C1=O.Cl [Compound 101, (2S, 5S, 8R, 12S)-1-(4-chloro-2-(4-(1-methyl-2-(pyrrolidin-1-ylmethyl)-1H-imidazol-5-yl)phenoxy)benzyl)-8-(4-chlorobenzyl)-12-((R)-2,3-dihydro-1H-inden-1-yl)-5-(methoxymethyl)-2,7,10-trimethyl-1,4,7,10-tetraazacyclotetradecane-3,6,11,14-tetraone]	1.94	98.3
COC[C@@H]1NC(=O)[C@H](CCC(=O)N2CCC2)N(Cc2ccc(Cl)cc2Oc2ccc(-c3cnc(CN4CCCC4)n3C)cc2)C(=O)C[C@@H]([C@H]2CC(C)(C)c3ccccc32)C(=O)N(C)C[C@@H](Cc2ccc(Cl)cc2)N(C)C1=O.Cl [Compound 132, (2S,5S,8R,12S)-2-(3-(azetidin-1-yl)-3-oxopropyl)-1-(4-chloro-2-(4-(1-methyl-2-(pyrrolidin-1-ylmethyl)-1H-imidazol-5-yl)phenoxy)benzyl)-8-(4-chlorobenzyl)-12-((R)-3,3-dimethyl-2,3-dihydro-1H-inden-1-yl)-5-(methoxymethyl)-7,10-dimethyl-1,4,7,10-tetraazacyclotetradecane-3,6,11,14-tetraone hydrochloride]	231	100.3
COC[C@@H]1NC(=O)[C@H](CCCN2CCOCC2)N(Cc2ccc(Cl)cc2Oc2ccc(-c3cnc(CN(C)C)n3C)cc2)C(=O)C[C@@H]([C@H]2CCc3ccccc32)C(=O)N(C)C[C@@H](Cc2ccc(Cl)cc2)N(C)C1=O.Cl [Compound 127, (2S, 5S, 8R, 12S)-1-(4-chloro-2-(4-(2-((dimethylamino)methyl)-1-methyl-1H-imidazol-5-yl)phenoxy)benzyl)-8-(4-chlorobenzyl)-12-((R)-2,3-dihydro-1H-inden-1-yl)-5-(methoxymethyl)-7,10-dimethyl-2-(3-morpholinopropyl)-1,4,7,10-tetraazacyclotetradecane-3,6,11,14-tetraone]	138	94.3
COC[C@@H]1NC(=O)[C@H](C)N(Cc2ccc(Cl)cc2Oc2ccc(-c3cnc(CN(C)C)n3C)cc2)C(=O)C[C@@H]([C@@H]2CCc3ccccc32)C(=O)N2CCC[C@@](Cc3ccc(Cl)cc3)(C2)NC1=O.Cl [Compound 95, (3S, 7S, 10S, 13R)-6-(4-chloro-2-(4-(2-((dimethylamino)methyl)-1-methyl-1H-imidazol-5-yl)phenoxy)benzyl)-13-(4-chlorobenzyl)-3-((S)-2,3-dihydro-1H-inden-1-yl)-10-(methoxymethyl)-7-methyl-1,6,9,12-tetraazabicyclo[11.3.1]heptadecane-2,5,8,11-tetraone]	1.88	102.5
C[C@H]1C(=O)N[C@@H](CO)C(=O)N[C@@]2(Cc3ccc(Cl)cc3)CCCN(C2)C(=O)[C@H]([C@@H]2CCc3ccccc32)CC(=O)N1Cc1ccc(Cl)cc1Oc1ccc(-c2cnc(C3=CCN(C)C3)n2C)cc1.Cl [Compound 77, (3S,7S,10S,13R)-6-(4-chloro-2-(4-(1-methyl-2-(1-methyl-2,5-dihydro-1H-pyrrol-3-yl)-1H-imidazol-5-yl)phenoxy)benzyl)-13-(4-chlorobenzyl)-3-((S)-2,3-dihydro-1H-inden-1-yl)-10-(hydroxymethyl)-7-methyl-1,6,9,12-tetraazabicyclo[11.3.1]heptadecane-2,5,8,11-tetraone hydrochloride]	0.979	71.9

Next, values leading:

IC50 [nM]	Max % inhibition [%]	Structure (SMILES)
1.25	114.0	COC[C@@H]1NC(=O)[C@H](C)N(Cc2c(F)cc(Cl)cc2Oc2ccc(-c3cnc(CN(C)C)n3C)cc2)C(=O)C[C@@H](Cc2ccccc2)C(=O)N2CCC[C@@](Cc3ccc(Cl)cc3)(C2)N(C)C1=O [Compound 159, (3R, 7S, 10S, 13R)-3-benzyl-6-(4-chloro-2-(4-(2-((dimethylamino)methyl)-1-methyl-1H-imidazol-5-yl)phenoxy)-6-fluorobenzyl)-13-(4-chlorobenzyl)-10-(methoxymethyl)-7,12-dimethyl-1,6,9,12-tetraazabicyclo[11.3.1]heptadecane-2,5,8,11-tetraone]
0.152	112.8	COC[C@@H]1NC(=O)[C@H](C)N(Cc2ccc(Cl)cc2Oc2ccc(-c3cnc(CN(C)C)n3C)nc2)C(=O)C[C@@H](CC(F)(F)F)C(=O)N2CCC[C@@](Cc3ccc(Cl)cc3)(C2)N(C)C1=O [Compound 12, (3S, 7S, 10S, 13R)-6-(4-chloro-2-((6-(2-((dimethylamino)methyl)-1-methyl-1H-imidazol-5-yl)pyridin-3-yl)oxy)benzyl)-13-(4-chlorobenzyl)-10-(methoxymethyl)-7,12-dimethyl-3-(2,2,2-trifluoroethyl)-1,6,9,12-tetraazabicyclo[11.3.1]heptadecane-2,5,8,11-tetraone]
0.463	109.3	COC[C@@H]1NC(=O)[C@H](C)N(Cc2ccc(Cl)cc2Oc2ccc(-c3cnc(CN(C)C)n3C)cc2)C(=O)C[C@@H](Cc2cccnc2)C(=O)N2CCC[C@@](Cc3ccc(Cl)cc3)(C2)NC1=O.Cl [Compound 23, (3R, 7S, 10S, 13R)-6-(4-chloro-2-(4-(2-((dimethylamino)methyl)-1-methyl-1H-imidazol-5-yl)phenoxy)benzyl)-13-(4-chlorobenzyl)-10-(methoxymethyl)-7-methyl-3-(pyridin-3-ylmethyl)-1,6,9,12-tetraazabicyclo[11.3.1]heptadecane-2,5,8,11-tetraone]
2.56	114.7	C[C@H]1C(=O)N[C@@H](COC(F)F)C(=O)N(C)[C@@]2(Cc3ccc(Cl)cc3)CCCN(C2)C(=O)[C@H](CC(F)(F)F)CC(=O)N1Cc1c(F)cc(Cl)cc1Oc1ccc(-c2cnc(CN(C)C)n2C)cc1 [Compound 175, (3S, 7S, 10S, 13R)-6-(4-chloro-2-(4-(2-((dimethylamino)methyl)-1-methyl-1H-imidazol-5-yl)phenoxy)-6-fluorobenzyl)-13-(4-chlorobenzyl)-10-((difluoromethoxy)methyl)-7,12-dimethyl-3-(2,2,2-trifluoroethyl)-1,6,9,12-tetraazabicyclo[11.3.1]heptadecane-2,5,8,11-tetraone]
52.7	108.8	CNCc1ncc(-c2ccc(Oc3cc(Cl)cc(F)c3CN3C(=O)C[C@@H](CC(F)(F)F)C(=O)N4CCC[C@@](Cc5ccc(Cl)cc5)(C4)N(C)C(=O)[C@H](CO)NC(=O)[C@@H]3C)cc2)n1C [Compound 177, (3S,7S,10S,13R)-6-(4-chloro-2-fluoro-6-(4-(1-methyl-2-((methylamino)methyl)-1H-imidazol-5-yl)phenoxy)benzyl)-13-(4-chlorobenzyl)-10-(hydroxymethyl)-7,12-dimethyl-3-(2,2,2-trifluoroethyl)-1,6,9,12-tetraazabicyclo[11.3.1]heptadecane-2,5,8,11-tetraone trifluoroacetate]
0.596	102.8	C[C@H]1C(=O)N[C@@H](CO)C(=O)N[C@@]2(Cc3ccc(Cl)cc3)CCCN(C2)C(=O)[C@H](Cc2ccc(F)c(F)c2F)CC(=O)N1Cc1c(F)cc(Cl)cc1Oc1ccc(-c2cnc(CN(C)C)n2C)cc1 [Compound 48, (3R, 7S, 10S, 13R)-6-(4-chloro-2-(4-(2-((dimethylamino)methyl)-1-methyl-1H-imidazol-5-yl)phenoxy)-6-fluorobenzyl)-13-(4-chlorobenzyl)-10-(hydroxymethyl)-7-methyl-3-(2,3,4-trifluorobenzyl)-1,6,9,12-tetraazabicyclo[11.3.1]heptadecane-2,5,8,11-tetraone]

Reference: US11813306B2, “Cyclic tetramer compounds as proprotein convertase subtilisin/kexin type 9 (PCSK9) inhibitors for the treatment of metabolic disorders” (NOVARTIS AG, priority 2018, dated 2023)
